According to patent US5023269A, “3-aryloxy-3-substituted propanamines” (Eli Lilly and Company, priority 1990, dated 1991):
Counter-ions that a name gives are not always drawn.

Key:
[1] = tested on: serotonin (5HT) uptake; experiment: Inhibition of 5HT uptake in vitro: synaptosomal uptake of 3H-serotonin in rat cortical synaptosomes; type: biochemical, rat (male Sprague-Dawley); settings: 50 nM 3H-5HT, 37° C., 5 min
Experimental: (§1) This general procedure is set forth by Wong et al., in Drug Development Research 6:397-403 (1985).
(§2) Male Sprague-Dawley rats (110-150 g) from Harlan Industries (Cumberland, IN) were fed a Purina Chow ad libitum for at least 3 days before being used in the studies. Rats were killed by decapitation. Whole brains were removed and dissected. Cerebral cortex was homogenized in 9 volumes of a medium containing 0.32 M sucrose and 10 mM glucose. Crude synaptosomal preparations were isolated after differential centrifugation at 1,000 g for 10 min. and 17,000 g for 28 min. The final pellets were suspended in the same medium and kept in ice until use within the same day.
(§3) Synaptosomal uptake of ^3 H-serotonin(^3 H-5hydroxytryptamine, ^3 H-5HT) and ^14 C-l-norepinephrine (^14 C-NE) was determined as follows. Cortical synaptosomes (equivalent to 1 mg of protein) were incubated at 37° C. for 5 min in 1 ml of Krebs-bicarbonate medium containing also 10 mM glucose, 0.1 mM iproniazid, 1 mM ascorbic acid, 0.17 mM EDTA, 50 nM ^3 H-5HT and 100 nM ^14 C-NE The reaction mixture was immediately diluted with 2 ml of ice-chilled Krebs-bicarbonate buffer and filtered under vacuum with a cell harvester (Brandel, Gaithersburg, MD). Filters were rinsed twice with approximately 5 ml of ice-chilled 0.9% saline and were transferred to a counting vial containing 10 ml of scintillation fluid (PCS, Amersham, Arlington Heights, IL). Radioactivity was measured by a liquid scintillation spectrophotometer. Accumulation of ^3 H-5HT and ^14 C-NE at 4° C. represented the background and was subtracted from all samples.

[2] = tested on: norepinephrine (NE) uptake; experiment: Inhibition of norepinephrine uptake in vitro: synaptosomal uptake of 14C-l-norepinephrine in rat cortical synaptosomes; type: biochemical, rat (male Sprague-Dawley); settings: 100 nM 14C-NE, 37° C., 5 min
Experimental: as §1, §2, §3

With `CNCCC(Oc1cccc2ccccc12)c1cccs1` (single isomer, unassigned; (-)) [Example 39, (-)-N-methyl-3-(1-naphthalenyloxy)-3-(2-thienyl)propanamine oxalate] the IC50 ([1]; oxalate) was […] and the IC50 ([2]; oxalate) was 34 nM.
`CN(C)CCC(Oc1cccc2ccccc12)c1cccs1` (stereo not drawn) [Example 1, N,N-Dimethyl-3-(1-naphthalenyloxy)-3-(2-thienyl)propanamine oxalate] showed an IC50 [1] of 13 nM and an IC50 [2] of 600 nM.
`Cc1ccc(C(CCN(C)C)Oc2cccc3ccccc23)s1` (stereo not drawn) [Example 3, N,N-Dimethyl-3-(1-naphthalenyloxy)-3-(5-methyl-2-thienyl)propanamine oxalate] gave an IC50 [1] of 55 nM and an IC50 [2] of 720 nM.
In the case of `Cc1ccsc1C(CCN(C)C)Oc1cccc2ccccc12` (stereo not drawn) [Example 4, N,N-Dimethyl-3-(1-naphthalenyloxy)-3-(3-methyl-2-thienyl)propanamine oxalate], the IC50 [1] was 76 nM and the “percent inhibition at 1000 nM, NE (number in parentheses)” value (from here on “percent inhibition at 1000 nM, NE”) [2] was 41%.
`CN(C)CCC(Oc1cccc2ccccc12)c1ccc(Cl)s1` (stereo not drawn) [Example 5, N,N-Dimethyl-3-(1-naphthalenyloxy)-3-(5-chloro-2-thienyl)propanamine oxalate] was tested, and the IC50 [1] was 62 nM and the IC50 [2] was 725 nM.
`CN(C)CCC(Oc1ccc(C(F)(F)F)c2ccccc12)c1cccs1` (stereo not drawn) [Example 6, N,N-Dimethyl-3-[4-(trifluoromethyl)-1naphthalenyloxy]-3-(2-thienyl)propanamine oxalate] was tested, and the IC50 [1] was 114 nM and the “percent inhibition at 1000 nM, NE” value [2] was 9%.
With `CNCCC(Oc1ccc(C(F)(F)F)c2ccccc12)c1cccs1` (stereo not drawn) [Example 7, N-Methyl-3-[4-(trifluoromethyl)-1-naphthalenyloxy]-3-(2-thienyl)propanamineoxalate] the IC50 [1] was 95 nM and the “percent inhibition at 1000 nM, NE” value [2] was 46%.
In the case of `CN(C)CCC(Oc1cccc2ccccc12)c1ccsc1` (stereo not drawn) [Example 8, N,N-Dimethyl-3-(1-naphthalenyloxy)-3-(3-thienyl)propanamine oxalate], the IC50 [1] was 25 nM and the IC50 [2] was 630 nM.
`CNCCC(Oc1cccc2ccccc12)c1ccsc1` (stereo not drawn) [Example 9, N-Methyl-3-(1-naphthalenyloxy)-3-(3-thienyl)propanamine oxalate] was tested, and the IC50 [1] was 18 nM and the IC50 [2] was 69 nM.
In the case of `CN(C)CCC(Oc1ccc(Cl)c2ccccc12)c1cccs1` (stereo not drawn) [Example 10, N,N-Dimethyl-3-(4-chloro-1-naphthalenyloxy)-3-(2-thienyl)propanamine oxalate], the IC50 [1] was 36 nM and the “percent inhibition at 1000 nM, NE” value [2] was 31%.
With `CNCCC(Oc1ccc(Cl)c2ccccc12)c1cccs1` (stereo not drawn) [Example 11, N-Methyl-3-(4-chloro-1-naphthalenyloxy)-3-(2-thienyl)propanamine oxalate] the IC50 [1] was 49 nM and the IC50 [2] was 77 nM.
In the case of `Cc1ccc(OC(CCN(C)C)c2cccs2)c2ccccc12` (stereo not drawn) [Example 12, N,N-Dimethyl-3-(4-methyl-1-naphthalenyloxy)-3-(2-thienyl)propanamine oxalate], the IC50 [1] was 58 nM and the “percent inhibition at 1000 nM, NE” value [2] was 40%.
`CNCCC(Oc1cccc2ccccc12)C1CCCCC1` (stereo not drawn) [Example 15, N-Methyl-3-(1-naphthalenyloxy)-3-cyclohexylpropanamine oxalate] showed an IC50 [1] of 125 nM and an IC50 [2] of 90 nM.
With `CNCCC(Oc1cccc2ccccc12)c1nccs1` (stereo not drawn) [Example 16, N-Methyl-3-(1-naphthalenyloxy)-3-(2-thiazolyl)propanamine oxalate] the IC50 [1] was 70 nM and the IC50 [2] was 205 nM.
`CN(C)CCC(Oc1ccc(C(F)(F)F)cc1)c1ccco1` (stereo not drawn) [Example 17, N,N-Dimethyl-3-[4-(trifluoromethyl)phenoxy]-3-(2-furanyl)propanamine oxalate] was tested, and the IC50 ([1]; oxalate) was 210 nM and the “percent inhibition at 1000 nM, NE” value ([2]; oxalate) was 5%.
`CN(C)CCC(Oc1ccc(C(F)(F)F)cc1)c1cccs1` (stereo not drawn) [Example 18, N,N-Dimethyl-3-[4-(trifluoromethyl)phenoxy]-3-(-22-thienyl)propanamine oxalate] was tested, and the IC50 [1] was 190 nM and the “percent inhibition at 1000 nM, NE” value [2] was 15%.
`CN(C)CCC(Oc1ccc(C(F)(F)F)cc1)c1ccsc1` (stereo not drawn) [Example 19, N,N-Dimethyl-3-[4-(trifluoromethyl)phenoxy]-3-(3-thienyl)propanamine oxalate] was tested, and the IC50 [1] was 125 nM and the “percent inhibition at 1000 nM, NE” value [2] was 17%.
For `CNCCC(Oc1ccc(C(F)(F)F)cc1)c1cccs1` (stereo not drawn) [Example 20, N-Methyl-3-[4-(trifluoromethyl)phenoxy-3-(2-thienyl)propanamine oxalate], the IC50 [1] was 46 nM and the “percent inhibition at 1000 nM, NE” value [2] was 52%.
`CN(C)CCC(Oc1ccc(C(F)(F)F)cc1)c1ccco1` (stereo not drawn) [Example 21, N,N-Dimethyl-3-[4-(trifluoromethyl)phenoxy]-3-(2-furanyl)propanamine] was tested, and the IC50 [1] was 140 nM and the “percent inhibition at 1000 nM, NE” value [2] was 14%.
For `CNCCC(Oc1ccc(C(F)(F)F)cc1)c1ccsc1` (stereo not drawn) [Example 22, N-Methyl-3-[4-(trifluoromethyl)phenoxy]-3-(3-thienyl)propanamine oxalate], the IC50 [1] was 100 nM and the “percent inhibition at 1000 nM, NE” value [2] was 36%.
With `CNCCC(Oc1ccc(C(F)(F)F)cc1)c1ccco1` (stereo not drawn) [Example 23, N-Methyl-3-[4-(trifluoromethyl)phenoxy]-3-(2-furanyl)propanamine oxalate] the IC50 [1] was 54 nM and the IC50 [2] was 1100 nM.
`Cc1ccc(OC(CCN(C)C)c2cccs2)cc1` (stereo not drawn) [Example 24, N,N-Dimethyl-3-(4-methylphenoxy)-3-(2-thienyl)propanamine oxalate] was tested, and the IC50 [1] was 125 nM and the IC50 [2] was 430 nM.
`CN(C)CCC(Oc1ccc(Cl)cc1)c1cccs1` (stereo not drawn) [Example 25, N,N-Dimethyl-3-(4-chlorophenoxy)-3-(2-thienyl)propanamine oxalate] was tested, and the IC50 [1] was 170 nM and the IC50 [2] was 820 nM.
In the case of `CNCCC(Oc1ccc(C)cc1)c1cccs1` (stereo not drawn) [Example 26, N-Methyl-3-(4-methylphenoxy)-3-(2-thienyl)propanamine oxalate], the IC50 [1] was 112 nM and the IC50 [2] was 22 nM.
`CNCCC(Oc1ccc(Cl)cc1)c1cccs1` (stereo not drawn) [Example 27, N-Methyl-3-(4-chlorophenoxy)-3-(2-thienyl)propanamine oxalate] was tested, and the IC50 [1] was 91 nM and the IC50 [2] was 59 nM.
`CNCCC(Oc1ccc(OC)cc1)c1cccs1` (stereo not drawn) [Example 28, N-Methyl-3-(4-methoxyphenoxy)-3-(2-thienyl)propanamine oxalate] showed an IC50 [1] of 50 nM and an IC50 [2] of 260 nM.
In the case of `COc1ccc(OC(CCN(C)C)c2cccs2)cc1` (stereo not drawn) [Example 29, N,N-Dimethyl-3-(4-methoxyphenoxy)-3-(2thienyl)propanamine oxalate], the IC50 [1] was 410 nM and the “percent inhibition at 1000 nM, NE” value [2] was 18%.
Work on `CN(C)CCC(Oc1cccc2ccccc12)c1ccco1` (stereo not drawn) [Example 30, N,N-Dimethyl-3-(1-naphthalenyloxy)-3-(2furanyl)propanamine oxalate] yielded an IC50 [1] of 11 nM and an IC50 [2] of 30 nM.
With `CNCCC(Oc1cccc2ccccc12)c1ccco1` (stereo not drawn) [Example 31, N-Methyl-3-(1-naphthalenyloxy)-3-(2-furanyl)propanamine oxalate] the IC50 [1] was 20 nM and the IC50 [2] was 22.7 nM.
`CN(C)CCC(Oc1cccc2ccccc12)c1nccs1` (stereo not drawn) [Example 32, N,N-Dimethyl-3-(1-naphthalenyloxy)-3-(2thiazolyl)propanamine oxalate] was tested, and the IC50 [1] was 50 nM and the IC50 [2] was 510 nM.
With `CN(C)CCC(Oc1cccc2ccccc12)C1CCCCC1` (stereo not drawn) [Example 33, N,N-Dimethyl-3-(1-naphthalenyloxy)-3-(cyclohexyl)propanamine oxalate] the IC50 [1] was 210 nM and the “percent inhibition at 1000 nM, NE” value [2] was 47%.
`CNCCC(Oc1ccc(C(F)(F)F)cc1)C1CCCCC1` (stereo not drawn) [Example 34, N-Methyl-3-[4-(trifluoromethyl)phenoxy]-3(cyclohexyl)propanamine oxalate] showed an IC50 [1] of 79 nM and an IC50 [2] of 285 nM.
`CN(C)CCC(Oc1ccc(C(F)(F)F)cc1)C1CCCCC1` (stereo not drawn) [Example 35, N,N-Dimethyl-3-[4-(trifluoromethyl)phenoxy]-3-(cyclohexyl)propanamine oxalate] was tested, and the IC50 [1] was 260 nM and the “percent inhibition at 1000 nM, NE” value [2] was 21%.
Work on `CN(C)CCC(Oc1cccc2ccccc12)c1cccnc1` (stereo not drawn) [Example 37, N,N-Dimethyl-3-(1-naphthalenyloxy)-3-(3-pyridyl)propanamine oxalate] yielded an IC50 [1] of 315 nM and an IC50 [2] of 315 nM.
